Experimental data as given in patent US20080009418A1, “Selective Inhibitors” (Alchemia LTD., priority 2004, published 2008).

Tests used:
[1] = molecular target: T1, Human δ-opioid (DOP) (Homo sapiens, UniProt P41143); assay: Radioligand binding, human δ-opioid (DOP) membranes, FlashPlate, [3H]-Bremazocine; details: compound at 10 μM; [3H]-Bremazocine, human DOP membranes
T1 construct: purchased Perkin Elmer Biosignal
How it was run: (§1)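 Cloned human receptor membranes were coated onto FlashPlate wells and incubated with radioligand and compound (added from a 0.5 mM DMSO daughter plate) for 1 hour at room temperature in the dark. Scintillation counting gave percent inhibition, with DMSO defining total and reference ligand defining non-specific binding.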

[2] = molecular target: T2, Human κ-Opioid (KOP) (Homo sapiens, UniProt P41145); assay: Radioligand binding, human κ-opioid (KOP) membranes, filtration, [3H]-Diprenorphine; details: compound at 10 μM, [3H]-Diprenorphine, human KOP membranes
T2 construct: purchased Perkin Elmer Biosignal
How it was run: (§2)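 Membranes from cloned human receptors were incubated with compound and radioligand for 1 hour at room temperature. Bound ligand was collected on 0.3% PEI-soaked filters, washed with cold 50 mM Tris-HCl pH 7.4, and counted by scintillation. Percent inhibition was computed against DMSO totals and reference-ligand nonspecific wells.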

[3] = molecular target: T3, Human Melanocortin (MC3) (Homo sapiens, UniProt P41968); assay: Radioligand binding, human melanocortin MC3 membranes, FlashPlate, [125I]-NDP-αMSH; details: compound at 10 μM, [125I]-NDP-αMSH, human MC3 membranes
T3 construct: purchased Perkin Elmer Biosignal
How it was run: as §1

[4] = molecular target: T4, Human Melanocortin (MC4) (Homo sapiens, UniProt P32245); assay: Radioligand binding, human melanocortin MC4 membranes, FlashPlate, [125I]-NDP-αMSH; details: compound at 10 μM, [125I]-NDP-αMSH, human MC4 membranes
T4 construct: purchased Perkin Elmer Biosignal
How it was run: as §1

[5] = molecular target: T5, Human melanocortin (MC5) (Homo sapiens, UniProt P33032); assay: Radioligand binding, human melanocortin MC5 membranes, FlashPlate, [125I]-NDP-αMSH; details: compound at 10 μM, [125I]-NDP-αMSH, human MC5 membranes
T5 construct: purchased Perkin Elmer Biosignal
How it was run: as §1

[6] = molecular target: T6, Human melanin-concentrating hormone (MCH1) (Homo sapiens, UniProt Q99705); assay: Radioligand binding, human melanin-concentrating hormone MCH1 membranes, FlashPlate, [125I]-S36057; details: compound at 10 μM, [125I]-S36057, human MCH1 membranes
T6 construct: purchased Perkin Elmer Biosignal
How it was run: as §1

[7] = molecular target: T7, Human μ-opioid (MOP) (Homo sapiens, UniProt P35372); assay: Radioligand binding, human μ-opioid (MOP) membranes, FlashPlate, [3H]-Naloxone; details: compound at 10 μM, [3H]-Naloxone, human MOP membranes
T7 construct: purchased Perkin Elmer Biosignal
How it was run: as §1

[8] = molecular target: T8, Human neurokinin (NK1) (Homo sapiens, UniProt P25103); assay: Radioligand binding, human neurokinin NK1 membranes, filtration, [125I]-Substance P; details: compound at 10 μM; [125I]-Substance P, human NK1 membranes
T8 construct: purchased Perkin Elmer Biosignal
How it was run: as §2

[9] = molecular target: T9, Human neuropeptide Y (NPY-Y1) (Homo sapiens, UniProt P25929); assay: Radioligand binding, human neuropeptide Y NPY-Y1 membranes, FlashPlate, [125I]-PYY; details: compound at 10 μM; [125I]-PYY, human NPY-Y1 membranes
T9 construct: purchased Perkin Elmer Biosignal
T9 sequence (P25929 1-384): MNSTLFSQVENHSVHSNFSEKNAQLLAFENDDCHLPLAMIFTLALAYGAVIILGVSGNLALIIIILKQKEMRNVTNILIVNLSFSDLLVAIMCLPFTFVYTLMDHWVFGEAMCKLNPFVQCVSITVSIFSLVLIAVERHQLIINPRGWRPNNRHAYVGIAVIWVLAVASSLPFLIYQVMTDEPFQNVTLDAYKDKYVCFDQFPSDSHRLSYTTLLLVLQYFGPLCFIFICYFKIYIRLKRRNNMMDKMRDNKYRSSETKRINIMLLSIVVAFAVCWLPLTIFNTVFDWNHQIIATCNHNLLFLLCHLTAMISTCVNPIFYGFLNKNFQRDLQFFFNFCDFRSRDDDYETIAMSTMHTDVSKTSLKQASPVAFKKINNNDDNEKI
How it was run: as §1

[10] = molecular target: T10, Human opioid (ORL1) (Homo sapiens, UniProt P41146); assay: Radioligand binding, human opioid ORL1 membranes, FlashPlate, [125I]-Nociceptin; details: compound at 10 μM, [125I]-Nociceptin, human ORL1 membranes
T10 construct: purchased Perkin Elmer Biosignal
How it was run: as §1

[11] = molecular target: T11, Mouse urotensin (mUR2) (Mus musculus, UniProt Q8VIH9); assay: Radioligand binding, mouse urotensin mUR2 membranes, FlashPlate, [125I]-Urotensin II; details: compound at 10 μM; [125I]-Urotensin II, mouse mUR2 membranes
T11 construct: purchased Perkin Elmer Biosignal
T11 sequence (Q8VIH9 1-385): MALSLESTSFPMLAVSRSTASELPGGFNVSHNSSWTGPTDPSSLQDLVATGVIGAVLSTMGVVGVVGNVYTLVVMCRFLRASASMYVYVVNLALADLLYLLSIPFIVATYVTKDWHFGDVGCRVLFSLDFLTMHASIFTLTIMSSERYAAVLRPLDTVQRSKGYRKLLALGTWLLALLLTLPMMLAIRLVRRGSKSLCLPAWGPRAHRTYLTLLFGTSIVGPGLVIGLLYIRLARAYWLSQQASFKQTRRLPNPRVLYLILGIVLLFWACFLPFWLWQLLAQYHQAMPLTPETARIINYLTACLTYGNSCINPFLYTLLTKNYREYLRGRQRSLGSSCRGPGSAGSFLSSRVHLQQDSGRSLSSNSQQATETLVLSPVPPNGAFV
How it was run: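 Cloned mouse urotensin (mUR2) receptor membranes from Perkin Elmer Biosignal were immobilized in FlashPlate microplates using a proprietary coating. Each well got 19.5 μl buffer, then 0.5 μl of DMSO, reference ligand, or compound. Adding 5 μl of [125I]-Urotensin II, diluted to 5× final concentration in binding buffer, started binding. Plates were sealed with TopSeal-A and incubated 1 hour at room temperature in the dark. Wells were counted for 30 seconds each on a TopCount after a 60-second delay, and percentage inhibition was calculated.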

T8 sequence (P25103 whole entry): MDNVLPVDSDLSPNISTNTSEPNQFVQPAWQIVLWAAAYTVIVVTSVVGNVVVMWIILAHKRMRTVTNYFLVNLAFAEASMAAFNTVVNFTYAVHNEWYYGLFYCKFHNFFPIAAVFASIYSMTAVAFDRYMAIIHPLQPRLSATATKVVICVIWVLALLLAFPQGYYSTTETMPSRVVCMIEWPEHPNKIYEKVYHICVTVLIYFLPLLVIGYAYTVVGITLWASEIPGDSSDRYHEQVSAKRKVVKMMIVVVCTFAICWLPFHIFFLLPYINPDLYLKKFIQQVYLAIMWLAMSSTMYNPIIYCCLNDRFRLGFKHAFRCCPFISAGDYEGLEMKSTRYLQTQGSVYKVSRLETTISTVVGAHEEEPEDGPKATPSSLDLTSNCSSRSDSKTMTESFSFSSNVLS
T10 sequence (P41146 whole entry): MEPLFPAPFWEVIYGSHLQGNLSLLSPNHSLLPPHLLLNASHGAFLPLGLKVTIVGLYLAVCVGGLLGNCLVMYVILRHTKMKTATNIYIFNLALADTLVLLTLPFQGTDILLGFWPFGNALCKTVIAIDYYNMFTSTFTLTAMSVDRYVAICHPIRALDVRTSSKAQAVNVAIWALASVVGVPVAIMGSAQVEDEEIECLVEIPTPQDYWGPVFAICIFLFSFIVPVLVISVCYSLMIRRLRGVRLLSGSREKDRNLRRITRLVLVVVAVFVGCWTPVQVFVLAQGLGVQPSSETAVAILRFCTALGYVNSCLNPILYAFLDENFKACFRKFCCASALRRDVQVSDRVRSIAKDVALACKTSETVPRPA
T4 sequence (P32245 whole entry): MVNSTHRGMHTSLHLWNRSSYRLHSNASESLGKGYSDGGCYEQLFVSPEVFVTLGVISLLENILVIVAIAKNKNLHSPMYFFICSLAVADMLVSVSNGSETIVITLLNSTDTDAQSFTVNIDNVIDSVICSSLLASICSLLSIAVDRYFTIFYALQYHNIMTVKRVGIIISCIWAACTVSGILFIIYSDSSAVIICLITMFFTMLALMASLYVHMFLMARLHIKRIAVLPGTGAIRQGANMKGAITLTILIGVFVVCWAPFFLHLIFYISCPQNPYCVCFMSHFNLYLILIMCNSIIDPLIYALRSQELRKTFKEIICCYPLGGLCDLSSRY
T7 sequence (P35372 whole entry): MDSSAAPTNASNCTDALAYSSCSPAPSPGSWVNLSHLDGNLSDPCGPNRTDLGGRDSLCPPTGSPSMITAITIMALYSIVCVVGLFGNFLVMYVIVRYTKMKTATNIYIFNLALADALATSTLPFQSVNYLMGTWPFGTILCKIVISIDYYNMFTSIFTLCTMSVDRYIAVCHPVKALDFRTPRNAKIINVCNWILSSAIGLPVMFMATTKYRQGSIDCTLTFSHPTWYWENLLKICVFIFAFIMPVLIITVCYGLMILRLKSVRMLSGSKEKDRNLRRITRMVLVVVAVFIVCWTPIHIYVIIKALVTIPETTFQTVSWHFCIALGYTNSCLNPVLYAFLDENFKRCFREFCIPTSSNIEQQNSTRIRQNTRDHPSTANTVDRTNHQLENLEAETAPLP
T2 sequence (P41145 whole entry): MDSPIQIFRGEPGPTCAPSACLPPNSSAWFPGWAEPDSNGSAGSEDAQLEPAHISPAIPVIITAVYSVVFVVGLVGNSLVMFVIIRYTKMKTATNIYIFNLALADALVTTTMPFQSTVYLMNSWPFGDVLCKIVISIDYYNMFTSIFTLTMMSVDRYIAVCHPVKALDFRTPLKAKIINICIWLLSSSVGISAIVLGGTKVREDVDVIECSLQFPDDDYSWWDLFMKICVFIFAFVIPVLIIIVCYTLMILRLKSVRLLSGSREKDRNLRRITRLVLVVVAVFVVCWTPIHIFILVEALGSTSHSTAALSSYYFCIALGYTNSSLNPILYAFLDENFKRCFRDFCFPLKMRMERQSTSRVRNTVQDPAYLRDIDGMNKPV
T6 sequence (Q99705 whole entry): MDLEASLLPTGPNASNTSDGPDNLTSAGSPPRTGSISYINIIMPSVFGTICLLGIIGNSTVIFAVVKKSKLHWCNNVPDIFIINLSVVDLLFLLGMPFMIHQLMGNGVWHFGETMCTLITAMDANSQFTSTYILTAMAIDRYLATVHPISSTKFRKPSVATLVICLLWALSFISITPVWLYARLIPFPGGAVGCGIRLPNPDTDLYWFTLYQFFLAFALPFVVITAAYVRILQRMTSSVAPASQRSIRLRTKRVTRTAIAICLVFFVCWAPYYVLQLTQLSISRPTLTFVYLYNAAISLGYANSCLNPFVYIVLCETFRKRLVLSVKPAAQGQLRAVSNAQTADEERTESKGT
T5 sequence (P33032 whole entry): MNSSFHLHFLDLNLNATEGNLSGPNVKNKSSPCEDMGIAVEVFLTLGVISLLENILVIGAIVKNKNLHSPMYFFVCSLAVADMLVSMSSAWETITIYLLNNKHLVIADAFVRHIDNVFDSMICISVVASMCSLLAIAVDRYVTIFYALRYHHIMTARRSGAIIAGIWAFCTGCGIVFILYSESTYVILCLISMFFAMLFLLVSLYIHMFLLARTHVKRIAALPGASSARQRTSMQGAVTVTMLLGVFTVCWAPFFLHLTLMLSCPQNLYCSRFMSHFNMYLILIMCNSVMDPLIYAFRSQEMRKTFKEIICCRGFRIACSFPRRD
T3 sequence (P41968 whole entry): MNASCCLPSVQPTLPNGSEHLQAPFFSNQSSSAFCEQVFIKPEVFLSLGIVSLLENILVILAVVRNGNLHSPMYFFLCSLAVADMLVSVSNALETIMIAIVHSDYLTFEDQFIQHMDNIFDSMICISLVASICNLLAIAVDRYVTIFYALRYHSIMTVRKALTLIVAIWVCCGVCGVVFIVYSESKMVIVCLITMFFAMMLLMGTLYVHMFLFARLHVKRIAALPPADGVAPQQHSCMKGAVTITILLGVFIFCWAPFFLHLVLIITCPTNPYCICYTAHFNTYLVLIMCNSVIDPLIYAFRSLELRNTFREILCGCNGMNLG
T1 sequence (P41143 whole entry): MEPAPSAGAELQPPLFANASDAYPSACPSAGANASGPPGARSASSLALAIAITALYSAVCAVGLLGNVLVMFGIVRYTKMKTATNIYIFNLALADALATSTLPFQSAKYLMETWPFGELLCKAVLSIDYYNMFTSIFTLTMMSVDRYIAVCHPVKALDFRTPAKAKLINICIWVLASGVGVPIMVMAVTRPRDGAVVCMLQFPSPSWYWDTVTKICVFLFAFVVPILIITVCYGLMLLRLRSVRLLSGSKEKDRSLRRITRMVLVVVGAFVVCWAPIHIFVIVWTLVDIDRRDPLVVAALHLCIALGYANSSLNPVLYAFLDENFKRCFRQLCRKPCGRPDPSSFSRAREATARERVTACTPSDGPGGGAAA

NCCC(=O)NC1C(OCc2ccc3ccccc3c2)OC(COCc2ccccc2)C(O)C1OCc1ccccc1 (stereo not shown) [compound 388]
A1: inhibition of radioligand binding [1]: − (“−” indicates less than 50% inhibition at 10 μM)
A2: inhibition of radioligand binding [2]: − (“−” indicates less than 50% inhibition at 10 μM)
A3: inhibition of radioligand binding [3]: − (“−” indicates less than 50% inhibition at 10 μM)
A4: inhibition of radioligand binding [4]: + (“+” indicates greater than 50% inhibition at 10 μM)
A5: inhibition of radioligand binding ([5]; 10 µM): + (“+” indicates greater than 50% inhibition at 10 μM)
A6: inhibition of radioligand binding [6]: − (“−” indicates less than 50% inhibition at 10 μM)
A7: inhibition of radioligand binding [7]: − (“−” indicates less than 50% inhibition at 10 μM)
A8: inhibition of radioligand binding [8]: + (“+” indicates greater than 50% inhibition at 10 μM)
A9: inhibition of radioligand binding [9]: − (“−” indicates less than 50% inhibition at 10 μM)
A10: inhibition of radioligand binding [10]: − (“−” indicates less than 50% inhibition at 10 μM)
A11: inhibition of radioligand binding [11]: − (“−” indicates less than 50% inhibition at 10 μM)

NCCC(=O)NC1C(OCc2ccc3ccccc3c2)OC(COCc2ccc(Cl)cc2)C(O)C1OCc1ccccc1 (stereo not shown) [compound 389]
A1: inhibition of radioligand binding [1]: − (“−” indicates less than 50% inhibition at 10 μM)
A2: inhibition of radioligand binding [2]: − (“−” indicates less than 50% inhibition at 10 μM)
A3: inhibition of radioligand binding ([3]; 10 µM): + (“+” indicates greater than 50% inhibition at 10 μM)
A4: inhibition of radioligand binding [4]: + (“+” indicates greater than 50% inhibition at 10 μM)
A5: inhibition of radioligand binding [5]: + (“+” indicates greater than 50% inhibition at 10 μM)
A6: inhibition of radioligand binding ([6]; 10 µM): − (“−” indicates less than 50% inhibition at 10 μM)
A7: inhibition of radioligand binding [7]: − (“−” indicates less than 50% inhibition at 10 μM)
A8: inhibition of radioligand binding [8]: + (“+” indicates greater than 50% inhibition at 10 μM)
A9: inhibition of radioligand binding [9]: − (“−” indicates less than 50% inhibition at 10 μM)
A10: inhibition of radioligand binding ([10]; 10 µM): + (“+” indicates greater than 50% inhibition at 10 μM)
A11: inhibition of radioligand binding [11]: − (“−” indicates less than 50% inhibition at 10 μM)

NCCCC(=O)NC1C(OCc2ccc3ccccc3c2)OC(COCc2ccc3ccccc3c2)C(O)C1OCc1ccc(Cl)cc1 (stereo not shown) [compound 390]
A1: inhibition of radioligand binding [1]: − (“−” indicates less than 50% inhibition at 10 μM)
A2: inhibition of radioligand binding ([2]; 10 µM): − (“−” indicates less than 50% inhibition at 10 μM)
A3: inhibition of radioligand binding [3]: + (“+” indicates greater than 50% inhibition at 10 μM)
A4: inhibition of radioligand binding [4]: + (“+” indicates greater than 50% inhibition at 10 μM)
A5: inhibition of radioligand binding [5]: + (“+” indicates greater than 50% inhibition at 10 μM)
A6: inhibition of radioligand binding [6]: + (“+” indicates greater than 50% inhibition at 10 μM)
A7: inhibition of radioligand binding ([7]; 10 µM): − (“−” indicates less than 50% inhibition at 10 μM)
A8: inhibition of radioligand binding [8]: + (“+” indicates greater than 50% inhibition at 10 μM)
A9: inhibition of radioligand binding [9]: − (“−” indicates less than 50% inhibition at 10 μM)
A10: inhibition of radioligand binding ([10]; 10 µM): + (“+” indicates greater than 50% inhibition at 10 μM)
A11: inhibition of radioligand binding [11]: − (“−” indicates less than 50% inhibition at 10 μM)

NCCCC(=O)NC1C(OCc2ccc3ccccc3c2)OC(COCc2ccccc2)C(O)C1OCc1ccc(Cl)cc1 (stereo not shown) [compound 391]
A1: inhibition of radioligand binding [1]: − (“−” indicates less than 50% inhibition at 10 μM)
A2: inhibition of radioligand binding [2]: − (“−” indicates less than 50% inhibition at 10 μM)
A3: inhibition of radioligand binding [3]: − (“−” indicates less than 50% inhibition at 10 μM)
A4: inhibition of radioligand binding ([4]; 10 µM): + (“+” indicates greater than 50% inhibition at 10 μM)
A5: inhibition of radioligand binding ([5]; 10 µM): − (“−” indicates less than 50% inhibition at 10 μM)
A6: inhibition of radioligand binding ([6]; 10 µM): − (“−” indicates less than 50% inhibition at 10 μM)
A7: inhibition of radioligand binding ([7]; 10 µM): − (“−” indicates less than 50% inhibition at 10 μM)
A8: inhibition of radioligand binding [8]: + (“+” indicates greater than 50% inhibition at 10 μM)
A9: inhibition of radioligand binding [9]: − (“−” indicates less than 50% inhibition at 10 μM)
A10: inhibition of radioligand binding ([10]; 10 µM): − (“−” indicates less than 50% inhibition at 10 μM)
A11: inhibition of radioligand binding [11]: − (“−” indicates less than 50% inhibition at 10 μM)

NCCCC(=O)NC1C(OCc2ccc3ccccc3c2)OC(COCc2ccc(Cl)cc2)C(O)C1OCc1ccc(Cl)cc1 (stereo not shown) [compound 392]
A1: inhibition of radioligand binding [1]: − (“−” indicates less than 50% inhibition at 10 μM)
A2: inhibition of radioligand binding [2]: − (“−” indicates less than 50% inhibition at 10 μM)
A3: inhibition of radioligand binding [3]: + (“+” indicates greater than 50% inhibition at 10 μM)
A4: inhibition of radioligand binding [4]: + (“+” indicates greater than 50% inhibition at 10 μM)
A5: inhibition of radioligand binding [5]: + (“+” indicates greater than 50% inhibition at 10 μM)
A6: inhibition of radioligand binding ([6]; 10 µM): − (“−” indicates less than 50% inhibition at 10 μM)
A7: inhibition of radioligand binding ([7]; 10 µM): − (“−” indicates less than 50% inhibition at 10 μM)
A8: inhibition of radioligand binding [8]: + (“+” indicates greater than 50% inhibition at 10 μM)
A9: inhibition of radioligand binding [9]: − (“−” indicates less than 50% inhibition at 10 μM)
A10: inhibition of radioligand binding ([10]; 10 µM): − (“−” indicates less than 50% inhibition at 10 μM)
A11: inhibition of radioligand binding [11]: − (“−” indicates less than 50% inhibition at 10 μM)
